EC50 data for 20 compounds are collected here from patent publication US20200390899A1, “AMINOBENZAZEPINE COMPOUNDS, IMMUNOCONJUGATES, AND USES THEREOF” (BOLT BIOTHERAPEUTICS, INC., priority 2019, published 2020).

Each structure is given as a SMILES string. Where two headings read alike, the source gives them in different places.

The target in one assay is T1, human TLR7 (Homo sapiens, UniProt Q9NYK1).
T1 construct: host or cells: HEK293 reporter cells
T1 sequence (Q9NYK1 27-1049): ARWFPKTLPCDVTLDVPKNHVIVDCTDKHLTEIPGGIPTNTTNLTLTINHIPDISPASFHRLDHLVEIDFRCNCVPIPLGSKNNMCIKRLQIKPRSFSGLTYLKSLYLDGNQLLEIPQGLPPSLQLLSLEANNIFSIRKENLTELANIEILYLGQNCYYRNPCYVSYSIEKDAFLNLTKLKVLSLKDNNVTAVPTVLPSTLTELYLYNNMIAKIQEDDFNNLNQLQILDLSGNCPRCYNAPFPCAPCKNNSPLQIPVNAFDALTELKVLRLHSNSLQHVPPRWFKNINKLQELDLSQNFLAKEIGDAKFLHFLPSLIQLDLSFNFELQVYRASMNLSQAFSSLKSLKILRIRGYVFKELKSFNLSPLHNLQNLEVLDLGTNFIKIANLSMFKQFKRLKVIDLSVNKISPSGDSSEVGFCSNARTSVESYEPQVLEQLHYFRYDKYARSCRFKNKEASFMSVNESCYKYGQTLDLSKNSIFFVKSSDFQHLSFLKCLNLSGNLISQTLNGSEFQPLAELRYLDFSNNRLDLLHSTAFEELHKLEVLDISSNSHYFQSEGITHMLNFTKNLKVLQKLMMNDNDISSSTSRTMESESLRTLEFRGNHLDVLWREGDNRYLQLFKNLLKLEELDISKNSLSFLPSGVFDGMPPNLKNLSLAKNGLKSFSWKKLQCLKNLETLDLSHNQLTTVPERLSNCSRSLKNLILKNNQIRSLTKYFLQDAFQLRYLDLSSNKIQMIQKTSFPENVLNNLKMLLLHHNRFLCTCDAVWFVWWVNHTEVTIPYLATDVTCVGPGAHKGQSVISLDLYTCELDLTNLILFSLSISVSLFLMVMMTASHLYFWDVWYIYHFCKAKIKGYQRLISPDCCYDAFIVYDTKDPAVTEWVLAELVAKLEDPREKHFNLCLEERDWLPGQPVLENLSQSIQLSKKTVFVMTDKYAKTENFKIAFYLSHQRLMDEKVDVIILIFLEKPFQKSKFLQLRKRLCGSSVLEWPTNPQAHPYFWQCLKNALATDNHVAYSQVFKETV
The assay can be described thus: HEK293 NFKB reporter assay, human TLR7. Type of assay: cell-based. As to conditions: HEK293 reporter cells expressing human TLR7, read-out: HEK293 hTLR7 EC50. On the procedure: (§1) Each compound was synthesized and purified by the methods in the Examples provided herein, characterized by mass spectrometry, and shown to have the mass indicated. Activity against HEK293 NFKB reporter cells expressing human TLR7 or human TLR8 was measured according to Example 68.
(§2) HEK293 reporter cells expressing human TLR7 or human TLR8 were purchased from Invivogen and vendor protocols were followed for cellular propagation and experimentation. Briefly, cells were grown to 80-85% confluence at 5% CO2 in DMEM supplemented with 10% FBS, Zeocin, and Blasticidin. Cells were then seeded in 96-well flat plates at 4×10^4cells/well with substrate containing HEK detection medium and immunostimulatory molecules. Activity was measured using a plate reader at 620-655 nm wavelength.

In a further assay the target is T2, human TLR8 (Homo sapiens, UniProt Q9NR97).
T2 construct: host or cells: HEK293 reporter cells
T2 sequence (Q9NR97 27-1041): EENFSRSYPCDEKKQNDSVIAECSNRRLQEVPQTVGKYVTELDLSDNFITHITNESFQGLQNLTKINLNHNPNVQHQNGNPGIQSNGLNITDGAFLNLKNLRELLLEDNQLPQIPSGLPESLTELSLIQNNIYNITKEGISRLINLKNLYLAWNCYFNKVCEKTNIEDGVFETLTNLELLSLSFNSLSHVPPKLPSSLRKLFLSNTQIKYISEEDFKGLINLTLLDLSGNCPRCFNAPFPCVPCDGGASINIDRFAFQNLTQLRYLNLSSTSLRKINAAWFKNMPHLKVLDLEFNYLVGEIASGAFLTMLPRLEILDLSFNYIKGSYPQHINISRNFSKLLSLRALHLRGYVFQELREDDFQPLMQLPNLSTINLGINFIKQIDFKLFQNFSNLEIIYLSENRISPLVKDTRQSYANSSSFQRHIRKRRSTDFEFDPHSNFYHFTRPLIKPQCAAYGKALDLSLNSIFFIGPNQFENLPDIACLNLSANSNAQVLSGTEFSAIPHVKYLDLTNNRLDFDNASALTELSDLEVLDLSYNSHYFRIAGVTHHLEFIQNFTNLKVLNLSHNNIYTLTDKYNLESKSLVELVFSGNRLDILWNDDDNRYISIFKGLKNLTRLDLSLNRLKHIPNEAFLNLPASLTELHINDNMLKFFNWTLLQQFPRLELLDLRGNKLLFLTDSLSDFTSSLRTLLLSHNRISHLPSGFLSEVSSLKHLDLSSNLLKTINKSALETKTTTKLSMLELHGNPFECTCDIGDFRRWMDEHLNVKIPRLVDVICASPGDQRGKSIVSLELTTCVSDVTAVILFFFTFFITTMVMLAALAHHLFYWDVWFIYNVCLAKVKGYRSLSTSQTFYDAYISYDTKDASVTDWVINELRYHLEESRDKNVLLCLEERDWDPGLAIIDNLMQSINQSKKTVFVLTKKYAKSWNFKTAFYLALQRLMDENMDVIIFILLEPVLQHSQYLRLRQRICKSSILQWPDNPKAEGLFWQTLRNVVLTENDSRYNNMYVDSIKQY
Description: HEK293 NFKB reporter assay, human TLR8. Type of assay: cell-based. To be noted: HEK293 reporter cells expressing human TLR8, read-out: HEK293 hTLR8 EC50. As to the method: as §1, §2

With `CCCN(Cc1ccc(CN)cc1)C(=O)C1=Cc2ccc(-c3cccc(S(=O)(=O)N4CC(CO)C4)c3)cc2N=C(N)C1` [Bz-27, 2-Amino-N-(4-(aminomethyl)benzyl)-8-(3-((3-(hydroxymethyl)azetidin-1-yl)sulfonyl)phenyl)-N-propyl-3H-benzo[b]azepine-4-carboxamide], the results for the EC50 on human TLR7 (Table 1b) and on human TLR8 (Table 1b) were > 9000 nM and 138 nM, respectively.
Turning to `CCCN(CC#CCNC(=O)OC(C)(C)C)C(=O)C1=Cc2ccc(-c3cccc(S(=O)(=O)N4CC(CN(C)C)C4)c3)cc2N=C(N)C1` [Bz-28, tert-butyl N-[4-[[2-amino-8-[3-[3-[(dimethylamino)methyl]azetidin-1-yl]sulfonylphenyl]-3H-1-benzazepine-4-carbonyl]-propyl-amino]but-2-ynyl]carbamate], the EC50 at human TLR7 (Table 1b) was 4250 nM; at human TLR8 (Table 1b), 42.8 nM.
Taken in the same sequence, the figures for `CCCN(OCC)C(=O)C1=Cc2ccc(-c3cccc(S(=O)(=O)N4CC(CO)C4)c3)cc2N=C(N)C1` [Bz-29, 2-amino-N-ethoxy-8-[3-[3-(hydroxylmethyl)azetidin-1-yl]sulfonylphenyl]-N-propyl-3H-1-benzazepine-4-carboxamide] were > 9000 nM and 32 nM.
Taken in the same sequence, the figures for `CCCN(CCC(F)(F)F)C(=O)C1=Cc2ccc(-c3cccc(S(=O)(=O)N4CC(CO)C4)c3)cc2N=C(N)C1` [Bz-31, 2-amino-8-[3-[3-(hydroxymethyl)azetidin-1-yl]sulfonylphenyl]-N-propyl-N-(3,3,3-trifluoropropyl)-3H-1-benzazepine-4-carboxamide] were > 9000 nM and 341 nM.
With `CCCN(Cc1ccc(CN2CCNCC2)cc1)C(=O)C1=Cc2ccc(-c3cccc(S(=O)(=O)N4CC(CO)C4)c3)cc2N=C(N)C1` [Bz-32, 2-amino-8-[3-[3-(hydroxymethyl)azetidin-1-yl]sulfonylphenyl]-N-[[4-(piperazin-1-ylmethyl)phenyl]methyl]-N-propyl-3H-1-benzazepine-4-carboxamide], the EC50 on human TLR7 (Table 1b) and at human TLR8 (Table 1b) was > 9000 nM in each case.
On to `CCCN(CCCNC(=O)c1ccc(OCC)cc1)C(=O)C1=Cc2ccc(-c3cccc(S(=O)(=O)N4CC(CO)C4)c3)cc2N=C(N)C1` [Bz-33, 2-amino-N-(3-(4-ethoxybenzamido)propyl)-8-(3-((3-(hydroxymethyl)azetidin-1-yl)sulfonyl)phenyl)-N-propyl-3H-benzo[b]azepine-4-carboxamide], for which the EC50 on human TLR7 (Table 1b) worked out at 1430 nM; on human TLR8 (Table 1b) it was 1920 nM.
Taken in the same sequence, the figures for `CCCN(CCCNC(=O)c1ccc(OCC)cc1)C(=O)C1=Cc2ccc(C(=O)Nc3ccccc3)cc2N=C(N)C1` [Bz-34, 2-amino-N^4-(3-(4-ethoxybenzamido)propyl)-N^8-phenyl-N^4-propyl-3H-benzo[b]azepine-4,8-dicarboxamide] were > 9000 nM and 1040 nM.
On to `CCCN(CCC)C(=O)C1=Cc2ccc(-c3cc(C(F)(F)F)cc(S(=O)(=O)N4CC(CN(C)C)C4)c3)cc2N=C(N)C1` [Bz-39], for which the figures for the EC50 at human TLR7 (Table 1c) and at human TLR8 (Table 1c) were 42 nM and 728 nM, respectively.
Taken in the same sequence, the figures for `CCCN(OCC)C(=O)C1=Cc2ccc(-c3cccc(S(=O)(=O)N4CC(CO)C4)c3)cc2N=C(N)C1` [Bz-42] were ≥ 9000 nM and 49 nM.
Take `CCCN(CCC(F)(F)F)C(=O)C1=Cc2ccc(-c3cccc(S(=O)(=O)N4CC(CO)C4)c3)cc2N=C(N)C1` [Bz-47]: the EC50 was ≥ 9000 nM at human TLR7 (Table 1c) and 341 nM at human TLR8 (Table 1c).
Consider `CCCN(Cc1ccc(CN2CCNCC2)cc1)C(=O)C1=Cc2ccc(-c3cccc(S(=O)(=O)N4CC(CO)C4)c3)cc2N=C(N)C1` [Bz-49], for which the EC50 on human TLR7 (Table 1c) and at human TLR8 (Table 1c) was ≥ 9000 nM in each case.
As for `CCCN(CCCNC(=O)c1ccc(OCC)cc1)C(=O)C1=Cc2ccc(-c3cccc(S(=O)(=O)N4CC(CO)C4)c3)cc2N=C(N)C1` [Bz-51], the EC50 on human TLR7 (Table 1c) stood at 1430 nM; at human TLR8 (Table 1c), 1920 nM.
On to `CCCN(CCCNC(=O)c1ccc(OCC)cc1)C(=O)C1=Cc2ccc(C(=O)Nc3ccccc3)cc2N=C(N)C1` [Bz-55], for which the figures for the EC50 at human TLR7 (Table 1c) and at human TLR8 (Table 1c) were ≥ 9000 nM and 1040 nM, respectively.
Taken in the same sequence, the figures for `CCCN(OCC)C(=O)C1=Cc2ccc(-c3cccc(S(=O)(=O)N4CC(CN(C)C)C4)c3)cc2N=C(N)C1` [Bz-63] were 1270 nM and 8 nM.
Taken in the same sequence, the figures for `CCON(CCC(F)(F)F)C(=O)C1=Cc2ccc(-c3cccc(S(=O)(=O)N4CC(CO)C4)c3)cc2N=C(N)C1` [Bz-66] were 4610 nM and 26 nM.
Taken in the same sequence, the figures for `CCCN(CCC)C(=O)C1=Cc2ccc(C#CCCCNC(=O)OC(C)(C)C)cc2N=C(N)C1` [Bz-67] were 3930 nM and 2050 nM.
Turning to `CCCN(CCC)C(=O)C1=Cc2ccc(C#CCCCN)cc2N=C(N)C1` [Bz-68], the EC50 at human TLR7 (Table 1c) came out at 4600 nM; on human TLR8 (Table 1c) it was 3070 nM.
On to `CCCN(CCC)C(=O)C1=Cc2ccc(CCCCCNC(=O)OC(C)(C)C)cc2N=C(N)C1` [Bz-69], for which the EC50 is 3210 nM at human TLR7 (Table 1c) and 6670 nM at human TLR8 (Table 1c).
Consider `CCCN(OCC(F)(F)F)C(=O)C1=Cc2ccc(-c3cccc(S(=O)(=O)N4CC(CO)C4)c3)cc2N=C(N)C1` [Bz-73], for which the results for the EC50 on human TLR7 (Table 1c) and on human TLR8 (Table 1c) were 4480 nM and 120 nM, respectively.
Taken in the same sequence, the figures for `CCCN(CCc1ccc(OC)cc1)C(=O)C1=Cc2ccc(-c3cccc(S(=O)(=O)N4CC(CN(C)C)C4)c3)cc2N=C(N)C1` [Bz-76] were 969 nM and 786 nM.
